Experimental data from patent US20260193295A1, “CILAGICIN COMPOUNDS AND METHODS OF USE THEREOF” (priority 2022, published 2026).
Converted amounts (≈) assume the structure as drawn. Positions of bridges follow the written chain, without caps; N, C: chain ends. Non-standard residues stand in square brackets, D forms with d. Residues, ends and D or L forms follow the SMILES beside them. *: point of attachment. Ileψ(thiazoline)Cys = CC[C@H](C)[C@H](N)C1=N[C@H](C(=O)*)CS1; Benzoyl(4-Ph) = O=C(c1ccc(-c2ccccc2)cc1)*; dOrn = NCCC[C@@H](N)C(=O)O; X3 = Cc1ccccc1/C=C/C(=O)*; dDab = NCC[C@@H](N)C(=O)O; Dab = NCC[C@H](N)C(=O)O

Assays:
[1] = system: S. aureus USA300; experiment: Resistance studies (daily serial passage at sub-MIC); format: cell-based, Staphylococcus aureus; details: daily serial passage at sub-MIC levels of antibiotic
Description: A single colony of S. aureus USA300 was inoculated in 5 mL LB broth and grown overnight at 37° C. with continuous shaking (200 rpm). The overnight culture was then diluted 1:5,000 into fresh LB. 50 μL aliquots of dilute cells were transferred into individual wells of 96-well plates containing 50 μL of serially diluted cilagicin, amphomycin (AG Scientific, USA) or bacitracin (Sigma, USA). Plates were statically incubated at 37° C. After 24 hours, the MIC was recorded. […] The MIC was determined as described above. This process was repeated daily for 25 days. For bacitracin, the LB medium was supplemented with 50 μg/mL ZnCl2. For amphomycin, the medium was supplemented with 100 μg/mL CaCl2-2H2O. Experiments were performed three independent times (n=3).

[2] = system: Streptococcus pneumoniae; format: cell-based
Description: (§1) MIC assay were conducted using the protocol recommended by the Clinical and Laboratory Standards Institute.(37) Culture conditions (temperature, medium) are detailed in Table 3. All compounds were dissolved in sterile DMSO (ATCC, USA) to give a concentration of 6.4 mg/mL. Vancomycin hydrochloride was used as positive controls. Tested compounds were serially diluted across 96-well plates using a 2-fold serial dilution in a volume of 50 μL. An overnight culture of an assay strain was diluted 5,000-fold in fresh medium. 50 μL of this dilution was added into each well, giving a final volume of 100 μL in each well. Compounds were assayed at concentrations ranging from 64 μg/mL to 0.06 μg/mL. The top and bottom rows of each plate were filled with 100 μL of media to avoid edge effects. […] For Clostridium difficile plates were statically incubated under anaerobic conditions (Vinyl anaerobic chamber, 37° C., 5% H2, 5% CO2, 90% N2). For Streptococcus pneumoniae plates were statically incubated under aerobic conditions supplemented with 5% C02 (37° C.). All MICs were performed in technical duplicate (n=2) and repeated three independent times (n=3).

[3] = system: Enterococcus faecium; format: cell-based
Description: as §1

[4] = system: Streptococcus agalactiae; format: cell-based
Description: as §1

[5] = system: Staphylococcus aureus; format: cell-based
Description: as §1

[6] = system: Streptococcus pyrogens; format: cell-based
Description: as §1

[7] = system: red blood cell (5% sheep blood agar plate); format: cell-based
Description: The hemolytic activity of cilagicin was evaluated using a red blood cell disc diffusion assay. Cilagicin and other test compounds were dissolved in 10% DMSO to give concentrations ranging from 100 μg/mL to 12.5 μg/mL. 10% (v/v) Triton X-100 and 10% DMSO were used as positive and vehicle controls, respectively. 20 μL of each serially diluted compound was infused on a sterile disc. Infused discs were overlaid on the surface of a 5% sheep blood agar plate (Hardy diagnostics, USA) and incubated at 20° C. for 24 hours. The size of the transparent ring that appeared in the agar plate was measured to determine hemolytic activity. Experiments were performed two independent times. A representative picture was taken of one experiment.

[8] = system: HEK293 cells; format: cell-based, human
Description: The cytotoxicity of […] analogs was tested using an MTT (3-(4,5-Dimethyl-2-thiazolyl)-2,5-diphenyl-2H-tetrazolium bromide) assay as previously described ([…] et al., 2006, […]7). HEK293 cells were seeded in a 96-well plate with a density of 5,000 cells/well and cultured in Dulbecco's Modified Eagle Medium (DMEM) supplemented with 10% fetal bovine serum, 1% Pen/Strep and 1% glutamate for 24 hours at 37° C. with 5% CO2. […] After 48 hours of incubation, the media was removed and 110 μL of freshly prepared MTT solution (0.45 mg/mL in DPBS) was added to each well. The plates were incubated for 3 hours at 37° C. with 5% C02 after which the MTT solution was removed by aspiration. […] The absorbance of each well was measured at OD570nm using a microplate reader (Infinite 200 PRO, Tecan). […] All the experiments were performed in triplicates (n=3) and repeated two independent times (n=2).

[9] = system: S. aureus USA300; experiment: Neutropenic thigh infection model in mice; format: in vivo, Staphylococcus aureus; details: neutropenic mouse thigh model, S. aureus USA300, 40 mg/kg thrice daily (TID) IP, 24 hours post infection
Description: Mice were randomly housed in individually ventilated cages (IVC). The room was set on a twelve-hour light cycle and the temperature was set to 70° F. The humidity was set to 30%. To initiate the neutropenic model, mice were injected with 150 mg/kg and 100 mg/kg of cyclophosphamide via intraperitoneal (IP) injection on days −4 and −1, respectively. On day −1, a single colony of S. aureus USA300 was grown in 15 mL of cation adjusted Mueller Hinton (MH) broth at 37° C. with shaking overnight. On day 0, cells were centrifuged, washed twice in 0.9% sterile saline, and resuspended in sterile 0.9% saline solution to give final optical density (600 nm) of 0.1. 50 μL of bacteria suspension was injected into both thighs via intramuscular (IM) injection. This provides a challenge inoculum of approximately 1.0×10^6 CFU in each thigh in a volume of 50 μL. At 2 hours post infection, mice were given 200 μL of vehicle (10% DMSO), vancomycin (40 mg/kg, 10% DMSO) or cilagicin BP (40 mg/kg, 10% DMSO) at 2, 10, and 18 hours post infection via IP injection. Mice in the pretreatment group (n=4 mice/n=8 thighs) were humanely euthanized by CO2 narcosis to determine the starting thigh bacterial burden. […] All graphic data are expressed as data points by group and were statistically analyzed using Prism software (Prism 9). […]

[10] = system: S. pyrogens ATCC19615; experiment: Neutropenic thigh infection model in mice; format: in vivo, Streptococcus pyrogens; details: neutropenic mouse thigh model
[11] = system: Clostridium difficile; experiment: MIC assay (broth microdilution); format: cell-based; details: C. difficile HM89
Description: as §1

## CC[C@H](C)[C@H](N)C1=N[C@H](C(=O)N[C@@H](CC(C)C)C(=O)N[C@H](CCC(=O)O)C(=O)N[C@H](C(=O)N[C@H]2CCCCNC(=O)[C@H](CC(N)=O)NC(=O)[C@@H](CC(=O)O)NC(=O)[C@H](Cc3cnc[nH]3)NC(=O)[C@@H](Cc3ccccc3)NC(=O)[C@H]([C@@H](C)CC)NC(=O)[C@@H](CCCN)NC2=O)[C@@H](C)CC)CS1 [bacitracin] ({Ileψ(thiazoline)Cys}-L[dE]IK[dOrn]I[dF]H[dD]N; lactam 4-C)
[1]
  development of resistance by S. aureus: rapidly developed resistance

## Cc1ccccc1/C=C/C(=O)N[C@H](CO)C(=O)N[C@@H]1C(=O)N[C@H](CCN)C(=O)N[C@@H](CC(=O)O)C(=O)NCC(=O)N[C@H](CC(N)=O)C(=O)N[C@H](CC(=O)O)C(=O)NCC(=O)N[C@@H](Cc2ccc(O)cc2)C(=O)N[C@@H](C(C)C)C(=O)N[C@@H](CCN)C(=O)N[C@@H](Cc2ccccc2)C(=O)O[C@@H]1C [Cilagicin L6] (X3-[dS]T[dDab]DG[dN][dD]GYV[Dab]F; ester 2-C)
[2]
  MIC: 32 µg/mL (≈ 22.8 µM)
[3]
  MIC: >64 µg/mL
[4]
  MIC: 64 µg/mL (≈ 45.7 µM)
[5]
  MIC: 64 µg/mL (≈ 45.7 µM)
[6]
  MIC: 4 µg/mL (≈ 2.86 µM)

## amphomycin
[1]
  development of resistance by S. aureus: rapidly developed resistance

## CC(C)[C@@H]1NC(=O)[C@H](Cc2ccc(O)cc2)NC(=O)CNC(=O)[C@@H](CC(=O)O)NC(=O)[C@@H](CC(N)=O)NC(=O)CNC(=O)[C@H](CC(=O)O)NC(=O)[C@@H](CCN)NC(=O)[C@@H](NC(=O)[C@@H](CO)NC(=O)c2ccc(-c3ccccc3)cc2)[C@@H](C)OC(=O)[C@H](Cc2ccccc2)NC(=O)[C@H](CCN)NC1=O [Cilagicin BP] ({Benzoyl(4-Ph)}-[dS]T[dDab]DG[dN][dD]GYV[Dab]F; ester 2-C)
[7]
  hemolytic activity: no hemolytic activity
[2]
  MIC: 4 µg/mL (≈ 2.78 µM)
[3]
  MIC: >64 µg/mL
[4]
  MIC: 16 µg/mL (≈ 11.1 µM)
[5]
  MIC: 4 µg/mL (≈ 2.78 µM)
[5]; S. aureus, presence versus absence of serum (10% serum)
  antibacterial activity (MIC) in the presence of serum: no increase in MIC
[6]
  MIC: 1 µg/mL (≈ 0.696 µM)
[8]
  human cell cytotoxicity: no human cell cytotoxicity
[9]
  reduction in colony forming units (CFU) compared to the vehicle control: ~4 log10
[10]; S. pyrogens ATCC19615, 40 mg/kg TID IP, 24 hours post infection
  reduction in bacterial burden compared to the vehicle control: > 5 log10
[10]; S. pyrogens, both 40 mg/kg TID
  reduction of bacterial burden compared with vancomycin: more than a log greater reduction of bacterial burden than vancomycin
[11]
  MIC: 16 µg/mL (≈ 11.1 µM)
